From the supplement of paper PMC10307832

Experiments:
Test in all cases: relative viability (nuclei count vs DMSO), 5 days (fraction); higher = more cells survive
NCI-H2405 = system: NCI-H2405
Method in brief: (§1)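 Medians of duplicate plates are given as relative viability. That measure is the nuclei count in treated wells divided by the count in vehicle wells. Counts were taken on 4× images of lung cancer cell lines in 1536-well plates, 5 days after pin-tool dosing the day after seeding with one drug alone or a fixed anchor-drug dose plus five library-drug doses (not always all listed) in √10 steps.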

NCI-H1623 = system: NCI-H1623
Method in brief: as §1

NCI-H2009 = system: NCI-H2009
Method in brief: as §1

NCI-H1648 = system: NCI-H1648
Method in brief: as §1

LOU-NH91 = system: LOU-NH91
Method in brief: as §1

NCI-H647 = system: NCI-H647
Method in brief: as §1

SMILES: Cc1cn(-c2cc(NC(=O)c3ccc(C)c(Nc4nccc(-c5cccnc5)n4)c3)cc(C(F)(F)F)c2)cn1 [Nilotinib] + Cc1cc(Nc2cc(N3CCN(C)CC3)nc(Sc3ccc(NC(=O)C4CC4)cc3)n2)n[nH]1 [Tozasertib] (partner 0.1 µM)
- relative viability (NCI-H2405; first compound 0.001 µM): 0.767
- relative viability (NCI-H2405; first compound 0.003162 µM): 0.765
- relative viability (NCI-H2405; first compound 0.01 µM): 0.712
- relative viability (NCI-H2405; first compound 0.03162 µM): 0.654
- relative viability (NCI-H2405; first compound 0.1 µM): 0.723
- relative viability (NCI-H1623; first compound 0.001 µM): 0.415
- relative viability (NCI-H1623; first compound 0.003162 µM): 0.528
- relative viability (NCI-H1623; first compound 0.01 µM): 0.457
- relative viability (NCI-H1623; first compound 0.03162 µM): 0.401
- relative viability (NCI-H1623; first compound 0.1 µM): 0.885
- relative viability (NCI-H2009; first compound 0.001 µM): 0.622
- relative viability (NCI-H2009; first compound 0.003162 µM): 0.853
- relative viability (NCI-H2009; first compound 0.01 µM): 0.577
- relative viability (NCI-H2009; first compound 0.03162 µM): 0.372
- relative viability (NCI-H2009; first compound 0.1 µM): 0.383
- relative viability (NCI-H1648; first compound 0.003162 µM): 0.395
- relative viability (NCI-H1648; first compound 0.01 µM): 0.389
- relative viability (NCI-H1648; first compound 0.03162 µM): 0.403
- relative viability (NCI-H1648; first compound 0.1 µM): 0.383
- relative viability (LOU-NH91; first compound 0.001 µM): 0.696
- relative viability (LOU-NH91; first compound 0.003162 µM): 0.708
- relative viability (LOU-NH91; first compound 0.01 µM): 0.781
- relative viability (LOU-NH91; first compound 0.03162 µM): 0.62
- relative viability (LOU-NH91; first compound 0.1 µM): 0.726
- relative viability (NCI-H647; first compound 0.001 µM): 0.147
- relative viability (NCI-H647; first compound 0.003162 µM): 0.227
- relative viability (NCI-H647; first compound 0.01 µM): 0.164
- relative viability (NCI-H647; first compound 0.03162 µM): 0.143
- relative viability (NCI-H647; first compound 0.1 µM): 0.139

SMILES: Cc1csc(=NC2CCCCC2)n1/N=C/c1ccc(O)c(O)c1O [MIM1] + Cc1cc(Nc2cc(N3CCN(C)CC3)nc(Sc3ccc(NC(=O)C4CC4)cc3)n2)n[nH]1 [Tozasertib] (partner 0.1 µM)
- relative viability (NCI-H2405; first compound 0.2 µM): 0.767
- relative viability (NCI-H2405; first compound 0.6325 µM): 0.721
- relative viability (NCI-H2405; first compound 2 µM): 0.682
- relative viability (NCI-H2405; first compound 6.325 µM): 0.549
- relative viability (NCI-H2405; first compound 20 µM): 0.537
- relative viability (NCI-H1623; first compound 0.2 µM): 0.454
- relative viability (NCI-H1623; first compound 0.6325 µM): 0.402
- relative viability (NCI-H1623; first compound 2 µM): 0.43
- relative viability (NCI-H1623; first compound 6.325 µM): 0.339
- relative viability (NCI-H1623; first compound 20 µM): 0.352
- relative viability (NCI-H2009; first compound 0.2 µM): 0.754
- relative viability (NCI-H2009; first compound 0.6325 µM): 0.701
- relative viability (NCI-H2009; first compound 2 µM): 0.859
- relative viability (NCI-H2009; first compound 6.325 µM): 0.622
- relative viability (NCI-H2009; first compound 20 µM): 0.725
- relative viability (NCI-H1648; first compound 0.2 µM): 0.371
- relative viability (NCI-H1648; first compound 0.6325 µM): 0.369
- relative viability (NCI-H1648; first compound 2 µM): 0.374
- relative viability (NCI-H1648; first compound 6.325 µM): 0.326
- relative viability (NCI-H1648; first compound 20 µM): 0.172
- relative viability (LOU-NH91; first compound 0.2 µM): 0.65
- relative viability (LOU-NH91; first compound 0.6325 µM): 0.657
- relative viability (LOU-NH91; first compound 2 µM): 0.51
- relative viability (LOU-NH91; first compound 6.325 µM): 0.581
- relative viability (LOU-NH91; first compound 20 µM): 0.225
- relative viability (NCI-H647; first compound 0.2 µM): 0.262
- relative viability (NCI-H647; first compound 0.6325 µM): 0.27
- relative viability (NCI-H647; first compound 6.325 µM): 0.247
- relative viability (NCI-H647; first compound 20 µM): 0.11

SMILES: CN1CCN(CCOc2cc(OC3CCOCC3)c3c(Nc4c(Cl)ccc5c4OCO5)ncnc3c2)CC1 [Saracatinib] + COc1cccc2cc(-c3nc([C@H]4CC[C@H](C(=O)O)CC4)n4ncnc(N)c34)[nH]c12 [OSI-027] (partner 0.5 µM)
- relative viability (NCI-H2405; first compound 0.02 µM): 0.647
- relative viability (NCI-H2405; first compound 0.2 µM): 0.62
- relative viability (NCI-H2405; first compound 0.6325 µM): 0.649
- relative viability (NCI-H2405; first compound 2 µM): 0.38
- relative viability (NCI-H1623; first compound 0.02 µM): 0.441
- relative viability (NCI-H1623; first compound 0.2 µM): 0.388
- relative viability (NCI-H1623; first compound 0.6325 µM): 0.404
- relative viability (NCI-H1623; first compound 2 µM): 0.357
- relative viability (NCI-H2009; first compound 0.02 µM): 0.628
- relative viability (NCI-H2009; first compound 0.2 µM): 0.547
- relative viability (NCI-H2009; first compound 0.6325 µM): 0.579
- relative viability (NCI-H2009; first compound 2 µM): 0.357
- relative viability (NCI-H1648; first compound 0.02 µM): 0.265
- relative viability (NCI-H1648; first compound 0.6325 µM): 0.262
- relative viability (NCI-H1648; first compound 2 µM): 0.283
- relative viability (LOU-NH91; first compound 0.02 µM): 0.756
- relative viability (LOU-NH91; first compound 0.2 µM): 0.556
- relative viability (LOU-NH91; first compound 0.6325 µM): 0.544
- relative viability (LOU-NH91; first compound 2 µM): 0.413
- relative viability (NCI-H647; first compound 0.02 µM): 0.584
- relative viability (NCI-H647; first compound 0.2 µM): 0.65
- relative viability (NCI-H647; first compound 0.6325 µM): 0.637
- relative viability (NCI-H647; first compound 2 µM): 0.381

SMILES: CCNC(=O)c1noc(-c2cc(C(C)C)c(O)cc2O)c1-c1ccc(CN2CCOCC2)cc1 [Luminespib] + COc1cccc2cc(-c3nc([C@H]4CC[C@H](C(=O)O)CC4)n4ncnc(N)c34)[nH]c12 [OSI-027] (partner 0.5 µM)
- relative viability (NCI-H2405; first compound 0.002 µM): 0.648
- relative viability (NCI-H2405; first compound 0.006325 µM): 0.545
- relative viability (NCI-H2405; first compound 0.02 µM): 0.532
- relative viability (NCI-H2405; first compound 0.06325 µM): 0.196
- relative viability (NCI-H2405; first compound 0.2 µM): 0.192
- relative viability (NCI-H1623; first compound 0.002 µM): 0.449
- relative viability (NCI-H1623; first compound 0.006325 µM): 0.439
- relative viability (NCI-H1623; first compound 0.02 µM): 0.415
- relative viability (NCI-H1623; first compound 0.06325 µM): 0.343
- relative viability (NCI-H1623; first compound 0.2 µM): 0.293
- relative viability (NCI-H2009; first compound 0.002 µM): 0.773
- relative viability (NCI-H2009; first compound 0.006325 µM): 0.534
- relative viability (NCI-H2009; first compound 0.02 µM): 0.518
- relative viability (NCI-H2009; first compound 0.06325 µM): 0.0609
- relative viability (NCI-H2009; first compound 0.2 µM): 0.0769
- relative viability (NCI-H1648; first compound 0.006325 µM): 0.283
- relative viability (NCI-H1648; first compound 0.02 µM): 0.289
- relative viability (NCI-H1648; first compound 0.06325 µM): 0.366
- relative viability (NCI-H1648; first compound 0.2 µM): 0.335
- relative viability (LOU-NH91; first compound 0.002 µM): 0.684
- relative viability (LOU-NH91; first compound 0.006325 µM): 0.74
- relative viability (LOU-NH91; first compound 0.02 µM): 0.492
- relative viability (LOU-NH91; first compound 0.06325 µM): 0.319
- relative viability (LOU-NH91; first compound 0.2 µM): 0.295
- relative viability (NCI-H647; first compound 0.002 µM): 0.717
- relative viability (NCI-H647; first compound 0.006325 µM): 0.626
- relative viability (NCI-H647; first compound 0.02 µM): 0.595
- relative viability (NCI-H647; first compound 0.06325 µM): 0.0814
- relative viability (NCI-H647; first compound 0.2 µM): 0.0562
